Measured values reported in patent publication US8420605B2, “Hydrogel compositions” (The University of Strathclyde, priority 2005, dated 2013).
Peptide text beside a SMILES is read from it. * marks the point of attachment. Fmoc = O=C(OCC1c2ccccc2-c2ccccc21)*

Key:
Format in all cases: cell-based
[1] = tested on: human adult dermal fibroblasts; assay: 2D culture on surface of self-assembled peptide hydrogel, cell phenotype under inverted light microscope; details: for appearance of fibroblasts on top of hydrogel: 10 mM/L gel
Method: An initial 2D culture of human adult dermal fibroblasts was carried out on the surface of 10 mM/L Fmoc-Phe-Phe-OH self-assembled peptide hydrogels and cell phenotype was investigated under inverted light microscope.
(§1) Generally, 0.0107 gram of Fmoc-Phe-Phe-OH was weighed in a glass vial and sterilized for 30 minutes by an ultraviolet light with bottles of distilled water, filtered NaOH (Sodium Hydroxide, 0.5 M/L), filtered HCl (Hydrochloric Acid, 0.5 M/L), and relevant apparatus (spatulas, pipettes, Vortex). 2 mL of the sterile distilled water was then added into the glass vial of Fmoc-Phe-Phe, and the mixture was vortexed for a few seconds to create a suspension. Afterwards, approximate 100 μL of NaOH was gradually pipetted into the suspension (20 μL each pipetting) and the mixture was vortexed after every addition of the alkaline. The whole mixture was shaken continually until a homogeneous transparent solution was obtained. The basic peptide solution (pH around 10) was finally neutralized to pH 7 by dropwise addition of HCl and pH values were monitored by a pH meter with a micro-probe.
The above peptide solutions of physiological pH were aliquoted into a 24 well-plate with 500 μL in each well and the well plate was maintained in a 37° C./5% CO2 incubator overnight. The solution underwent a self-assembling to become hydrogels. Human adult dermal fibroblasts in suspension were then poured on top of the self-assembled hydrogels with 1 mL cell suspension for each well. Cell suspensions of 8×10^4/mL were used with a serum-free DMEM (Dulbecco's modified Eagle's medium) supplemented by 1% antibiotics/antimicotics. […] These originally spreaded cells, however, became rounded with a diameter of around 10 microns between 24 and 72 hours. The phenomenon indicated of a dynamic solid (gel)-liquid (culture medium) interface which formed a malleable, unstable gel surface to wrap and sink cells into the interacted nano-filaments of the gel structure resulting the cells' rounding up.

[2] = tested on: bovine chondrocytes; assay: Culture of chondrocytes on/in hydrogel scaffold (proliferation and retention of phenotype); details: cell culture of up to 7 days
Method: Bovine chondrocytes were isolated from cartilage of the proximal side of the metacarpalphalangeal joint, washed in PBS and incubated overnight in Dulbeccos Modified Eagles Medium (DMEM) supplemented with 10% foetal calf serum, 100 units ml^−1 penicillin/streptomycin and 0.85 mM ascorbic acid. The cartilage was finely chopped and incubated with pronase type E (700 units ml^−1) (BDH Ltd., Poole, UK) in medium for 2 h followed by collagenase type 1a (300 units ml^−1) (SIGMA-ALDRICH Co. Ltd., Poole, UK) in medium for 2 h. The cell suspension was centrifuged at 1500 rpm for 5 min to pellet the cells. The cells were washed twice in medium and seeded directly onto the peptide scaffolds (and tissue culture plastic control) or encapsulated within the scaffolds during the gelation stage at a cell density of 5×10^5 ml^−1 in medium. The cultures were maintained in an incubator at 37° C. with a humidified atmosphere of 5% CO2 for up to 4 weeks. Chondrocytes were used up to passage 5.
Finally, all three gels prepared (ie. entries 1, 2 and 3) were tested for their ability to support proliferation and retention of phenotype of bovine chondrocytes. […]
The rounded cell shape is the typical phenotype for chondrocytes. […] Two-photon fluorescence microscopy was used to observe samples stained with DAPI, a fluorescent nucleic acid stain that enables visualisation of cell nuclei.

[3] = tested on: human adult dermal fibroblasts; assay: LDH assay of cell viability (3D culture)
Method: In order to quantitatively test cell viability in the 3D culture, LDH assay was adopted which tested the amount of lactate dehydrogenase inside cell […] (reflecting cell numbers).
as §1, with “0.0107” for “Generally, 0.0107”, “Fmoc-Phe-Phe-OH,” for “Fmoc-Phe-Phe,”, “micro-probe. […]” for “micro-probe.”
The culture was maintained in a 37° C./5% CO2 incubator for a 10 day period and LDH assay was carried out after 1 hour, 1 day, 3 days, 7 days, and 10 days. […] Assay reagent was then added, the mixture was incubated, and light absorbance at 490 nm was then measured. Absorbance was converted to cell number according to a standard. […]

O=C(N[C@@H](Cc1ccccc1)C(=O)N[C@@H](Cc1ccccc1)C(=O)O)OCC1c2ccccc2-c2ccccc21 [Entry 1, Fmoc-Phe-Phe-OH] (Fmoc-Phe-Phe-OH)
appearance of fibroblasts on top of hydrogel ([1]; 4 hours, 2D culture): spreaded | appearance of fibroblasts on top of hydrogel ([1]; 6 hours, 2D culture): spreaded | appearance of fibroblasts on top of hydrogel ([1]; 24 hours, 2D culture): rounded | diameter of rounded cells ([1]; between 24 and 72 hours, 2D culture): around 10 microns | cell attachment and spreading ([1]; within the first 8 hours of culturing, 2D): cell attachment and spreading was observed | retention of morphological phenotype and proliferation of chondrocytes [2]: cell morphological phenotype is retained | cell number (LDH assay), initial course ([3]; 3D culture, 10 day period): initially a decreasing of cell numbers | cell number increase (LDH assay) ([3]; from day 7 to day 10, 3D culture): 5 folds
